Test results published in patent EP3400955B1, “USE OF CRYPTONIN FOR TREATMENT OF CANCER” (Istanbul Universitesi Rektorlugu, priority 2016, dated 2025).
Read-outs that look alike come from different tables or passages of the source. Ends that are not written are not given here.

Legend:
[1] = test system: MCF-7 cells; conditions: 24 hours, positive control = 100%
Procedure: (§1) The lactate dehydrogenase (LDH) release assay is based on the measurement of a cytoplasmic enzyme, lactate dehydrogenase, activity released from damaged cells (Lobner, 2000) and is used for the assessment of cellular cytotoxicity. The cytotoxic effect of cryptonin on MCF-7 and MDA-MB 231 breast cancer cell lines was determined by measuring the activity of lactate dehydrogenase (LDH) enzyme released from damaged cells and a Cytotoxicity Detection Kit, LDH (Roche Molecular Diagnostics, Germany) was used for this purpose.
(§2) In LDH test, a negative control, a control group for spontaneous LDH release from the cells, and a positive control group for maximum LDH release were studied, as well as experimental groups to which peptide was administered. […] For this purpose, doses of 10, 25, 50 and 100 µg/ml were administered for MCF-7 cells and doses of 7.5, 10, 25 and 50 µg/ml were administered for MDA-MB 231 cells, for 24 hours. Cells were grown in the flasks of 75 cm, then removed with trypsin-EDTA and centrifuged. Cells were suspended in medium at 5000 cells per 100 µl, and 100 µl of cell suspension was transferred to 96-well plates. All control groups and experimental groups were studied with 3 wells and the experiment was repeated 3 times. After a 24-hour incubation, the media of the control groups were refreshed. The medium of the experimental groups was replaced with a medium containing different concentrations of peptide. The lactate dehydrogenase enzyme activity released from the cells after the cells were incubated with cryptonin for 24 hours was determined following the manufacturer's instructions. 5 µl of lysis solution (2% Triton-X-100) was added to the wells of the positive control group and the plate was incubated for 15 minutes at 37°C. To measure LDH activity, 100 µl of the freshly prepared reaction mixture containing catalyst (Diaphorase/NAD^+ mixture) and dye solution (iodotetrazolium chloride (INT) and sodium lactate) was added to each well. After 30 minutes of incubation in the dark at room temperature, the reaction was stopped by the addition of 50 µL of stop solution (1N HCl) to each well. The plates were shaken for 10 seconds on an orbital shaker and the spectrophotometric absorbance was measured at a test wavelength of 490 nm and a reference wavelength of 690 nm. The results were determined as % cytotoxicity. The mean absorbance values of the negative control were subtracted from the control and experimental groups, the positive control group was considered to be 100% cytotoxic and the cytotoxicities were calculated by comparing the control and experimental groups with positive control group using the following formula: [formula]

[2] = test system: MDA-MB 231 cells; conditions: 24 hours, positive control = 100%
Procedure: as §1, §2

[3] = test system: MCF-7 cells; assay: Type of cell death by acridine orange/ethidium bromide double staining; type: cell-based; conditions: 24 hours, mean +/- Standard Error
Procedure: (§3) Cells were stained with acridine orange/ethidium bromide double staining method to morphologically analyze whether cryptonin-induced cell death occurs by a necrotic pathway or by an apoptotic pathway. For this purpose, breast cancer cells were plated in a 24-well plate, with 10,000 cells being present in each well and incubated for 24 hours at the above-mentioned different concentrations of antimicrobial peptides. After incubation, a mixture of acridine orange (Sigma) (100 µg/ml) /ethidium bromide stain (Sigma) (100 µg/ml) prepared in PBS was applied to the cells and the cells were visualized using a FITC/CY3 filter on a fluorescent microscope (Nikon DS5MCU2). 200 cells from each group were counted according to the staining pattern. Cells were grouped as viable, apoptotic and necrotic according to the staining pattern of their nuclei (Spector et al., 1998). Viable cells were distinguished as having green chromatin nuclei in an organized structure, apoptotic cells were distinguished as having green or orange fragmented nuclei, and necrotic cells were distinguished as normal colored but having orange nuclei like normal cells (Ribble et al., 2005).

[4] = test system: MDA-MB 231 cells; assay: as above; type: cell-based; conditions: 24 hours, mean +/- Standard Error
Procedure: as §3

[5] = test system: 3T3 fibroblast cells
Procedure: Yellow MTT is reduced to purple formazan crystals by the activity of mitochondrial dehydrogenases in viable cells. The intensity of the resulting purple color is directly proportional to the number of viable cells. MTT test was performed in 96-well plates. To this end, the cells grown in the flasks were removed by trypsin-EDTA, then collected by centrifugation and the cell pellet was suspended in the medium such that 5000 cells would be present per 100 µl. 5000 cells were plated in each well of the plate. In the following day, the medium in the wells was removed, fresh medium was added to the control group, and a medium containing anti-microbial peptide was added to the experimental groups at 8 different concentrations. This medium contained 10% serum.
Cells were exposed to different concentrations of antimicrobial peptide for 24 hours. At the end of this period, 30 µl of a solution of 3-(4,5-dimethylthiazol-2-yl)-2,5-diphenyltetrazolium bromide (MTT) was added to each well in the plate. […] The optical density was measured at a test wavelength of 570 nm and a reference wavelength of 630 nm. […] The mean absorbance values obtained from the control group were accepted as 100% cell viability and the values obtained from the wells treated with antimicrobial peptide were assessed versus control group.

[6] = test system: 3T3 Fibroblast Cell Membrane; conditions: 100 µg/ml, 24-hour incubation
Procedure: MCF-7 and MDA-MB 231 and 3T3 fibroblast cells were plated into sterile round slides with a diameter of 12 mm in the wells in 24-well plate such that each well contained 50,000 cells. The following day, the medium was replaced with a medium containing cryptonin at a concentration of 100 µg/ml. After 24-hour incubation, the cells were washed 2 times with 0.1 M sodium cacodylate buffer (pH 7.2) and fixed with 2.5% glutaraldehyde prepared in 0.1 M sodium cacodylate buffer for 2 hours. After the first fixation, the cells were washed again with 0.1 M sodium cacodylate buffer and fixed with 1% osmium tetroxide prepared in 0.2 M sodium cacodylate buffer for 30 minutes for the second time. After the cells were washed with 0.2 M sodium cacodylate buffer, they were taken in an increasing series of ethyl alcohol. Dehydration was performed by incubation 3 times with 30% alcohol for 5 minutes, 3 times with 50% alcohol for 5 minutes, 2 times with 70% alcohol for 10 minutes, 2 times with 85% alcohol for 15 minutes, 2 times with 95% alcohol for 15 minutes and 3 times with 100% alcohol for 10 minutes. After the slides were air-dried, they were coated with golden by BioRad SC 502 coating device. The cells were examined with Jeol Neoscope JCM-500 scanning electron microscope and their photographs were taken (Vitale et al., 1998; Hilchie et al., 2011).

[7] = test system: erythrocytes; conditions: dose of 25-200 µg/ml; Park et al. (2007); cited from earlier work

GLLNGLALRLGKRALKKIIKRLCR [cryptonin]
LDH release (% cytotoxicity) ([1]; 25 µg/ml): 36.03±2.1%
LDH release (% cytotoxicity) ([1]; 50 ug/ml): 84.1±1.7%
LDH release (% cytotoxicity) ([1]; 100 µg/ml): 84.66±1.6%
LDH release (% cytotoxicity) ([2]; 7.5 µg/ml): 7.09±0.7%
LDH release (% cytotoxicity) ([2]; 10 µg/ml): 8.46±0.9%
LDH release (% cytotoxicity) ([2]; 25 µg/ml): 24.24±2.1%
LDH release (% cytotoxicity) ([2]; 50 µg/ml): 45.90±1%
Viable cell % ([3]; 10 µg/ml): 98.89±5%
Viable cell % ([3]; 25 µg/ml): 85.3±4.8%
Viable cell % ([3]; 50 µg/ml): 1.07±1.1%
Viable cell % ([3]; 100 µg/ml): 0.06±0.2%
Viable cell % ([3]; 200 µg/ml): 2.14±1.8%
Viable cell % ([4]; 10 µg/ml): 95.88±1.6%
Viable cell % ([4]; 25 µg/ml): 95.53±2.9%
Viable cell % ([4]; 50 µg/ml): 45.13±4.1%
Viable cell % ([4]; 100 µg/ml): 0.04±0.1%
Viable cell % ([4]; 200 µg/ml): 0±0%
fibroblast cell viability ([5]; dose range 25-200 µg/ml): significantly reduced
number of viable cells ([5]; less at 10 µg/ml, more at 25, 50, 100 and 200 µg/ml, 24 hours, cells representing normal cells): reduced the number of viable cells
effect on cell membrane (scanning electron microscope) [6]: disrupted the cell membrane integrity by forming pores, slits and blebs
hemolysis of erythrocytes [7]: 5%
